{"source": "patent US20060009478A1", "about": "“Methods for the treatment of back pain” (priority 2003, published 2006)", "tested_on": "patients with moderate to severe chronic pain due to osteoarthritis of the hip or knee", "key": {"[1]": {"conditions": "3-week study, intent to treat population"}, "[2]": {"conditions": "Week 1, Days 1-3: 10 mg OXY/d, Days 4-8: 20 mg OXY/d"}}, "note": "Where two headings read alike, the source gives them in different places."}
{"molecule": "COc1ccc2c3c1O[C@H]1C(=O)CC[C@@]4(O)[C@@H](C2)N(C)CC[C@]314", "note": "[OXY QID, oxycodone]", "values": [{"measurement": "Discontinuation of treatment because of adverse event: Any adverse event, % of patients", "setting": "[1]", "result": 28.4, "unit": "%"}, {"measurement": "Discontinuation of treatment because of adverse event: Any adverse event, number of patients", "setting": "[1]", "result": 29}, {"measurement": "Discontinuation of treatment because of adverse event: Constipation, % of patients", "setting": "[1]", "result": 1.0, "unit": "%"}, {"measurement": "Discontinuation of treatment because of adverse event: Constipation, number of patients", "setting": "[1]", "result": 1}, {"measurement": "Discontinuation of treatment because of adverse event: Diarrhea, % of patients", "setting": "[1]", "result": 0.0, "unit": "%"}, {"measurement": "Discontinuation of treatment because of adverse event: Diarrhea, number of patients", "setting": "[1]", "result": 0}, {"measurement": "Discontinuation of treatment because of adverse event: Dizziness, % of patients", "setting": "[1]", "result": 1.0, "unit": "%"}, {"measurement": "Discontinuation of treatment because of adverse event: Dizziness, number of patients", "setting": "[1]", "result": 1}, {"measurement": "Discontinuation of treatment because of adverse event: Euphoric mood, % of patients", "setting": "[1]", "result": 0.0, "unit": "%"}, {"measurement": "Discontinuation of treatment because of adverse event: Euphoric mood, number of patients", "setting": "[1]", "result": 0}, {"measurement": "Discontinuation of treatment because of adverse event: Eye disorders, % of patients", "setting": "[1]", "result": 0.0, "unit": "%"}, {"measurement": "Discontinuation of treatment because of adverse event: Eye disorders, number of patients", "setting": "[1]", "result": 0}, {"measurement": "Discontinuation of treatment because of adverse event: Gastrointestinal disorders, % of patients", "setting": "[1]", "result": 12.7, "unit": "%"}, {"measurement": "Discontinuation of treatment because of adverse event: Gastrointestinal disorders, number of patients", "setting": "[1]", "result": 13}, {"measurement": "Discontinuation of treatment because of adverse event: General disorders and administration site conditions, % of patients", "setting": "[1]", "result": 2.0, "unit": "%"}, {"measurement": "Discontinuation of treatment because of adverse event: General disorders and administration site conditions, number of patients", "setting": "[1]", "result": 2}, {"measurement": "Discontinuation of treatment because of adverse event: Headache, % of patients", "setting": "[1]", "result": 2.0, "unit": "%"}, {"measurement": "Discontinuation of treatment because of adverse event: Headache, number of patients", "setting": "[1]", "result": 2}, {"measurement": "Discontinuation of treatment because of adverse event: Lethargy, % of patients", "setting": "[1]", "result": 0.0, "unit": "%"}, {"measurement": "Discontinuation of treatment because of adverse event: Lethargy, number of patients", "setting": "[1]", "result": 0}, {"measurement": "Discontinuation of treatment because of adverse event: Nausea, % of patients", "setting": "[1]", "result": 6.9, "unit": "%"}, {"measurement": "Discontinuation of treatment because of adverse event: Nausea, number of patients", "setting": "[1]", "result": 7}, {"measurement": "Discontinuation of treatment because of adverse event: Nervous system disorders, % of patients", "setting": "[1]", "result": 7.8, "unit": "%"}, {"measurement": "Discontinuation of treatment because of adverse event: Nervous system disorders, number of patients", "setting": "[1]", "result": 8}, {"measurement": "Discontinuation of treatment because of adverse event: Pruritus, % of patients", "setting": "[1]", "result": 1.0, "unit": "%"}, {"measurement": "Discontinuation of treatment because of adverse event: Pruritus, number of patients", "setting": "[1]", "result": 1}, {"measurement": "Discontinuation of treatment because of adverse event: Psychiatric disorders, % of patients", "setting": "[1]", "result": 1.0, "unit": "%"}, {"measurement": "Discontinuation of treatment because of adverse event: Psychiatric disorders, number of patients", "setting": "[1]", "result": 1}, {"measurement": "Discontinuation of treatment because of adverse event: Sedation, % of patients", "setting": "[1]", "result": 2.0, "unit": "%"}, {"measurement": "Discontinuation of treatment because of adverse event: Sedation, number of patients", "setting": "[1]", "result": 2}, {"measurement": "Discontinuation of treatment because of adverse event: Skin and subcutaneous tissue disorders, % of patients", "setting": "[1]", "result": 2.9, "unit": "%"}, {"measurement": "Discontinuation of treatment because of adverse event: Skin and subcutaneous tissue disorders, number of patients", "setting": "[1]", "result": 3}, {"measurement": "Discontinuation of treatment because of adverse event: Sommolence, % of patients", "setting": "[1]", "result": 2.0, "unit": "%"}, {"measurement": "Discontinuation of treatment because of adverse event: Sommolence, number of patients", "setting": "[1]", "result": 2}, {"measurement": "Discontinuation of treatment because of adverse event: Upper abdominal pain, % of patients", "setting": "[1]", "result": 0.0, "unit": "%"}, {"measurement": "Discontinuation of treatment because of adverse event: Upper abdominal pain, number of patients", "setting": "[1]", "result": 0}, {"measurement": "Discontinuation of treatment because of adverse event: Vomiting, % of patients", "setting": "[1]", "result": 3.9, "unit": "%"}, {"measurement": "Discontinuation of treatment because of adverse event: Vomiting, number of patients", "setting": "[1]", "result": 4}, {"measurement": "Adverse event Constipation, % of patients", "setting": "[2]", "result": 12.7, "unit": "%"}, {"measurement": "Adverse event Constipation, number of patients", "setting": "[2]", "result": 13}, {"measurement": "Adverse event Dizziness, % of patients", "setting": "[2]", "result": 16.7, "unit": "%"}, {"measurement": "Adverse event Dizziness, number of patients", "setting": "[2]", "result": 17}, {"measurement": "Adverse event Dry Mouth, % of patients", "setting": "[2]", "result": 5.9, "unit": "%"}, {"measurement": "Adverse event Dry Mouth, number of patients", "setting": "[2]", "result": 6}, {"measurement": "Adverse event Fatigue, % of patients", "setting": "[2]", "result": 2.9, "unit": "%"}, {"measurement": "Adverse event Fatigue, number of patients", "setting": "[2]", "result": 3}, {"measurement": "Adverse event Headache, % of patients", "setting": "[2]", "result": 16.7, "unit": "%"}, {"measurement": "Adverse event Headache, number of patients", "setting": "[2]", "result": 17}, {"measurement": "Adverse event Nausea, % of patients", "setting": "[2]", "result": 23.5, "unit": "%"}, {"measurement": "Adverse event Nausea, number of patients", "setting": "[2]", "result": 24}, {"measurement": "Adverse event Pruritus, % of patients", "setting": "[2]", "result": 7.8, "unit": "%"}, {"measurement": "Adverse event Pruritus, number of patients", "setting": "[2]", "result": 8}, {"measurement": "Adverse event Sommolence, % of patients", "setting": "[2]", "result": 15.7, "unit": "%"}, {"measurement": "Adverse event Sommolence, number of patients", "setting": "[2]", "result": 16}, {"measurement": "Adverse event Vomiting, % of patients", "setting": "[2]", "result": 3.9, "unit": "%"}, {"measurement": "Adverse event Vomiting, number of patients", "setting": "[2]", "result": 4}, {"measurement": "Adverse event Constipation, % of patients", "setting": "Week 2, 30 mg OXY/d", "result": 7.1, "unit": "%"}, {"measurement": "Adverse event Constipation, number of patients", "setting": "Week 2, 30 mg OXY/d", "result": 6}, {"measurement": "Adverse event Dizziness, % of patients", "setting": "Week 2, 30 mg OXY/d", "result": 11.8, "unit": "%"}, {"measurement": "Adverse event Dizziness, number of patients", "setting": "Week 2, 30 mg OXY/d", "result": 10}, {"measurement": "Adverse event Dry Mouth, % of patients", "setting": "Week 2, 30 mg OXY/d", "result": 4.7, "unit": "%"}, {"measurement": "Adverse event Dry Mouth, number of patients", "setting": "Week 2, 30 mg OXY/d", "result": 4}, {"measurement": "Adverse event Fatigue, % of patients", "setting": "Week 2, 30 mg OXY/d", "result": 0.0, "unit": "%"}, {"measurement": "Adverse event Fatigue, number of patients", "setting": "Week 2, 30 mg OXY/d", "result": 0}, {"measurement": "Adverse event Headache, % of patients", "setting": "Week 2, 30 mg OXY/d", "result": 3.5, "unit": "%"}, {"measurement": "Adverse event Headache, number of patients", "setting": "Week 2, 30 mg OXY/d", "result": 3}, {"measurement": "Adverse event Nausea, % of patients", "setting": "Week 2, 30 mg OXY/d", "result": 14.1, "unit": "%"}, {"measurement": "Adverse event Nausea, number of patients", "setting": "Week 2, 30 mg OXY/d", "result": 12}, {"measurement": "Adverse event Pruritus, % of patients", "setting": "Week 2, 30 mg OXY/d", "result": 5.9, "unit": "%"}, {"measurement": "Adverse event Pruritus, number of patients", "setting": "Week 2, 30 mg OXY/d", "result": 5}, {"measurement": "Adverse event Sommolence, % of patients", "setting": "Week 2, 30 mg OXY/d", "result": 7.1, "unit": "%"}, {"measurement": "Adverse event Sommolence, number of patients", "setting": "Week 2, 30 mg OXY/d", "result": 6}, {"measurement": "Adverse event Vomiting, % of patients", "setting": "Week 2, 30 mg OXY/d", "result": 3.5, "unit": "%"}, {"measurement": "Adverse event Vomiting, number of patients", "setting": "Week 2, 30 mg OXY/d", "result": 3}, {"measurement": "Adverse event Constipation, % of patients", "setting": "Week 3, 40 mg OXY/d", "result": 2.7, "unit": "%"}, {"measurement": "Adverse event Constipation, number of patients", "setting": "Week 3, 40 mg OXY/d", "result": 2}, {"measurement": "Adverse event Dizziness, % of patients", "setting": "Week 3, 40 mg OXY/d", "result": 5.3, "unit": "%"}, {"measurement": "Adverse event Dizziness, number of patients", "setting": "Week 3, 40 mg OXY/d", "result": 4}, {"measurement": "Adverse event Dry Mouth, % of patients", "setting": "Week 3, 40 mg OXY/d", "result": 0.0, "unit": "%"}, {"measurement": "Adverse event Dry Mouth, number of patients", "setting": "Week 3, 40 mg OXY/d", "result": 0}]}
